Results: ChEMBL document CHEMBL1201862, “PubChem BioAssay data set” (2004)
Calls of active or inactive are those of the source.

Columns and labels:
[1] = biological target: Aspartyl aminopeptidase (Plasmodium falciparum 3D7, UniProt Q8I2J3)
[2] = biological target: Procathepsin L (Homo sapiens, UniProt P07711)
[3] = biological target: Protein Rev (Human immunodeficiency virus type 1 group M subtype B (isolate WMJ22)(HIV-1), UniProt P05866); assay: inhibitors of Rev protein–RRE RNA complex – biochemical, protein-RNA interaction, dose response (AID 842); set-up: species or system Human immunodeficiency virus 1
Chain of Protein Rev (P05866 whole entry, the tested form may be a part): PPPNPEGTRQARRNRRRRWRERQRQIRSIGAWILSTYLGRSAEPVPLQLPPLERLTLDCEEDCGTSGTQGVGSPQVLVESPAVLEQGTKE

[4] = biological target: T1, Oxysterols receptor LXR-beta (Homo sapiens, UniProt P55055); assay: LXR agonists, Gal4 luciferase reporter, dose response, counter-screen for ssDAF-12 agonist project, cell-based, luminescence, HEK293, S. stercoralis campaign (AID 720737); format: functional; details: read-out: IC50 (the source's name)
T1 sequence (P55055 whole entry): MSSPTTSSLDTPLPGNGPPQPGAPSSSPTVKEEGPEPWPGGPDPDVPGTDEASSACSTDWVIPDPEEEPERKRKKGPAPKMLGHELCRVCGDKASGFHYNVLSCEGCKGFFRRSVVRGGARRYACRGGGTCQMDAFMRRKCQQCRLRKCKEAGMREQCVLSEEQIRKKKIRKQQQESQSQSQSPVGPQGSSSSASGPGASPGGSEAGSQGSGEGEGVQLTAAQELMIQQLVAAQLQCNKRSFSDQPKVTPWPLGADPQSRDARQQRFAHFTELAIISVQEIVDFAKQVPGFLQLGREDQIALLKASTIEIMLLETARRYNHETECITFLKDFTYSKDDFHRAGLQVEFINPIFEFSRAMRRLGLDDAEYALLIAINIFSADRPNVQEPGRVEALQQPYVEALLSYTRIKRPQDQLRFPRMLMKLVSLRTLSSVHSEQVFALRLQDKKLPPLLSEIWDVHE

[5] = Counterscreen for IDE inhibitors: Luminescence-based cell-based high throughput dose response assay to identify compounds that are cytotoxic to HEK cells. [Related pubchem assays: 434962 (Primary screen (IDE inhibitors in singlicate)), 449730 (Counterscreen (Cytotoxicity in triplicate)), 435028 (Confirmation (IDE inhibitors in triplicate)) …; format: functional; details: HEK293
[6] = biological target: T2, Insulin-degrading enzyme (Homo sapiens, UniProt P14735); assay: Dose Response: Fluorescence polarization-based cell-based high throughput dose response assay for inhibitors of insulin-degrading enzyme (IDE). [Related pubchem assays: 434962 (Primary screen (IDE inhibitors in singlicate)), 449730 (Counterscreen (Cytotoxicity in triplicate)), 435028 (Confirmation (IDE inhibitors in triplicate)), 434984 (Summary …; format: functional
T2 sequence (P14735 whole entry): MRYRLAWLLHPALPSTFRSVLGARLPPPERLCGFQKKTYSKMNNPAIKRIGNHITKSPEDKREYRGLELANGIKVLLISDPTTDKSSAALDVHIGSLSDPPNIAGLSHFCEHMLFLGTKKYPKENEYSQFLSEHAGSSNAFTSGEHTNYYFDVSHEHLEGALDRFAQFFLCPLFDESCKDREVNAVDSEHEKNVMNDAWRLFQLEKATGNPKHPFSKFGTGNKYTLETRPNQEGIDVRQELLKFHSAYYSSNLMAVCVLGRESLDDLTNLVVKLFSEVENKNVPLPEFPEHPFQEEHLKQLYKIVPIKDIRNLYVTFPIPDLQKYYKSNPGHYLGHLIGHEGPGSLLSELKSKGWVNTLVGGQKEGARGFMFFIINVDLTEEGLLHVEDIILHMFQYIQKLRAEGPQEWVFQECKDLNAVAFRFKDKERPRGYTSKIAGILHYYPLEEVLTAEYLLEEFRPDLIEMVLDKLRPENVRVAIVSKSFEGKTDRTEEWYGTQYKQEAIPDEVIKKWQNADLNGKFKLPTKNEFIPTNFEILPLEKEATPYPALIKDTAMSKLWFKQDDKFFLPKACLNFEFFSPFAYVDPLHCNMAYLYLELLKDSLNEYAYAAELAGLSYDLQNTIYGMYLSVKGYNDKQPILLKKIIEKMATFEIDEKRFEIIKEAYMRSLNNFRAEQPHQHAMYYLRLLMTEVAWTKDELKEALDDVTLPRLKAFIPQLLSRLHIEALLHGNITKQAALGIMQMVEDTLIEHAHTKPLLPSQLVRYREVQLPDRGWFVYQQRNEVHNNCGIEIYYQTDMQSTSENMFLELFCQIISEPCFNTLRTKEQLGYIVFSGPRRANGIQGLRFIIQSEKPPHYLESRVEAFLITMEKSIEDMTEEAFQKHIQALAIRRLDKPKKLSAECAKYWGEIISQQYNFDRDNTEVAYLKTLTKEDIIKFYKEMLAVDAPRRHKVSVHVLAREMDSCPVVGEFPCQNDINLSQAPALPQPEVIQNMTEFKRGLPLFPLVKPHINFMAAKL

[7] = Luminescence-based cell-based high throughput dose response assay to identify activators of the DAF-12 from the parasite S. stercoralis (ssDAF-12).; format: functional
[8] = mitochondrial function rescue without frataxin homolog – Friedreich's ataxia, plus single-dose screen, dose response (AID 1465); format: functional;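 also: yeast depleted of Yfh1p frataxin homolog grown on glycerol needing respiration; WST-1 tetrazolium dye reduction as measure of cellular dehydrogenase metabolic activity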
[9] = biological target: T3, Neuropeptide Y receptor type 2 (Homo sapiens, UniProt P49146); assay: Fluorescence-based counterscreen for agonists of NPY-Y1: cell-based high-throughput dose response assay for agonists of NPY-Y2.; format: functional
T3 sequence (P49146 whole entry): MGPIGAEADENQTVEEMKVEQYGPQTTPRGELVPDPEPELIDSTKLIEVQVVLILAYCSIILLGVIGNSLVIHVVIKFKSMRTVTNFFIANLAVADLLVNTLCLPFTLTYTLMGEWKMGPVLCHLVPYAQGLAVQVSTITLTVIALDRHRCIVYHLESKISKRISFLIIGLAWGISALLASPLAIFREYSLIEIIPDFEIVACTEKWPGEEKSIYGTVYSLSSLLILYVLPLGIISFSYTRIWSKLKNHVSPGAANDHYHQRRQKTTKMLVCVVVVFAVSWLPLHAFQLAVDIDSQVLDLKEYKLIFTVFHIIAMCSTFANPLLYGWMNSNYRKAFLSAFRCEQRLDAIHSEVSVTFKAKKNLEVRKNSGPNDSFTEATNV

[10] = biological target: T4, Neuropeptide Y receptor type 1 (Homo sapiens, UniProt P25929); assay: Fluorescence-based dose response cell-based high-throughput screening assay for agonists of NPY-Y1. [Related pubchem assays: 1697 (Screening assay (NPY-Y1 agonists).), 1359 (Screening assay (NPY-Y2 potentiators or agonists).), 1304 (Screening assay (NPY-Y1 potentiators or agonists).), 1704 (Screening assay (CNGC inhibitors).), 1791 (Summary AID.)]; format: functional
T4 sequence (P25929 whole entry): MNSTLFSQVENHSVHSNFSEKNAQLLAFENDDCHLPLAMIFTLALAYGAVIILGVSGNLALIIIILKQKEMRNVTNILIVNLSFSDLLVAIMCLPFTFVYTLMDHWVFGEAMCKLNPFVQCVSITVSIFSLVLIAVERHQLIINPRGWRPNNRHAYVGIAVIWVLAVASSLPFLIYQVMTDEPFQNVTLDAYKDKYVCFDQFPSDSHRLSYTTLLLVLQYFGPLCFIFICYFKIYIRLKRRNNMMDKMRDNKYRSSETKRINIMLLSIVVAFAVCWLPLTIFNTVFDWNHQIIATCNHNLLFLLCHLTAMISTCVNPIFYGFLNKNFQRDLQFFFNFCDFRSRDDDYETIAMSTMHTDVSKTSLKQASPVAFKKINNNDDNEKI

[11] = test system: HEK293; assay: Fluorescence-based counterscreen for potentiators or agonists of NPY-Y1: cell-based high-throughput dose response assay for inhibitors of cyclic nucleotide gated ion channel (CNGC) activity. In this assay, the parental HEK293 cell line transfected with a cyclic-nucleotide gated ion channel (CNGC)-based cAMP sensor is used to measure inhibition of isoproterenol-induced CNGC …; format: functional; details: Homo sapiens
[12] = biological target: Cytochrome P450 2C9 (Homo sapiens, UniProt P11712); details: Potency
Chain of Cytochrome P450 2C9 (P11712 whole entry): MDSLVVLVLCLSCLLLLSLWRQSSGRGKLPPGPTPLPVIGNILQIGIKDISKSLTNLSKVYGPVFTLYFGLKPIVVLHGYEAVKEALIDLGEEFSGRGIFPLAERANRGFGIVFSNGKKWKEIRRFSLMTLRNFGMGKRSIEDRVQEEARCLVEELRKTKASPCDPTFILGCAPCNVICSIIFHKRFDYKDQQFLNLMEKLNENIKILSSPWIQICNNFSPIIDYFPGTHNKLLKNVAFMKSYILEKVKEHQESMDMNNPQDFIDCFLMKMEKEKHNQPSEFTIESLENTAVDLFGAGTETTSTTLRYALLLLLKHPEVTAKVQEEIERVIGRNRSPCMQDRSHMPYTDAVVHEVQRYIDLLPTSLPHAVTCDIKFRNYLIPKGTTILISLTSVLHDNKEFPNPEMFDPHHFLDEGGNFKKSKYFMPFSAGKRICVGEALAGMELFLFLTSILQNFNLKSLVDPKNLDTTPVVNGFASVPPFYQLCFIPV

[13] = biological target: Cytochrome P450 3A4 (Homo sapiens, UniProt P08684); details: Potency;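 also: confirmatory qHTS run detecting inhibitors and substrates of CYP3A4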
Chain of Cytochrome P450 3A4 (P08684 whole entry): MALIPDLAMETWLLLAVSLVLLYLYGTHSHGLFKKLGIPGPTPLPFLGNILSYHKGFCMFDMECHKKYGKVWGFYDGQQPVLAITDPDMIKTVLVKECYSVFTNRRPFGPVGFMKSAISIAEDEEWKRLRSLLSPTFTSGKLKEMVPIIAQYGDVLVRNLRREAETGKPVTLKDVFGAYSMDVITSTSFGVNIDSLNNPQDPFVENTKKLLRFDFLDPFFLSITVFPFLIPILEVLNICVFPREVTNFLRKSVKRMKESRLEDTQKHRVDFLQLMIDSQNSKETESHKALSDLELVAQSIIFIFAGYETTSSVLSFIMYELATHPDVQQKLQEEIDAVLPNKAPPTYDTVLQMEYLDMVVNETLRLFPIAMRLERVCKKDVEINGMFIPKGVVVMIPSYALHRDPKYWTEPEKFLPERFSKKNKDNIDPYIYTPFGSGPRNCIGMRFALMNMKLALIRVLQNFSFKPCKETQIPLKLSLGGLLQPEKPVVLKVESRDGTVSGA

[14] = biological target: T5, Alkaline phosphatase, tissue-nonspecific isozyme (Homo sapiens, UniProt P05186)
T5 sequence (P05186 whole entry): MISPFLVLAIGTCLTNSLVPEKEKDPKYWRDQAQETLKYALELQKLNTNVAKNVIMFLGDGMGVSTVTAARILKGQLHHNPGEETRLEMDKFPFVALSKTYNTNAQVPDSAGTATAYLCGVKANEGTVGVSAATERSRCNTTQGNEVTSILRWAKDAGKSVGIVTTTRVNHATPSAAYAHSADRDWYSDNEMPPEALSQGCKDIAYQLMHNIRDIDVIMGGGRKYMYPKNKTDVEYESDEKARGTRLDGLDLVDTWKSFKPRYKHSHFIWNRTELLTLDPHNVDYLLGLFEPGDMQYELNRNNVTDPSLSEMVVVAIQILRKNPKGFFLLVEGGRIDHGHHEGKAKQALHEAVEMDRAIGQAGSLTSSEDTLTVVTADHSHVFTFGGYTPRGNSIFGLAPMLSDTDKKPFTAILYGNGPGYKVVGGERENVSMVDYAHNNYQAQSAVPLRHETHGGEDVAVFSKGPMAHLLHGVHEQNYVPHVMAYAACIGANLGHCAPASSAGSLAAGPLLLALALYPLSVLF

[15] = biological target: Lysosomal acid glucosylceramidase (Homo sapiens, UniProt P04062); assay: Dose response cell-based high throughput screening assay to identify enhancers of beta-glucosidase activity. [Related pubchem assays: 784 ]; format: functional
Chain of Lysosomal acid glucosylceramidase (P04062 whole entry): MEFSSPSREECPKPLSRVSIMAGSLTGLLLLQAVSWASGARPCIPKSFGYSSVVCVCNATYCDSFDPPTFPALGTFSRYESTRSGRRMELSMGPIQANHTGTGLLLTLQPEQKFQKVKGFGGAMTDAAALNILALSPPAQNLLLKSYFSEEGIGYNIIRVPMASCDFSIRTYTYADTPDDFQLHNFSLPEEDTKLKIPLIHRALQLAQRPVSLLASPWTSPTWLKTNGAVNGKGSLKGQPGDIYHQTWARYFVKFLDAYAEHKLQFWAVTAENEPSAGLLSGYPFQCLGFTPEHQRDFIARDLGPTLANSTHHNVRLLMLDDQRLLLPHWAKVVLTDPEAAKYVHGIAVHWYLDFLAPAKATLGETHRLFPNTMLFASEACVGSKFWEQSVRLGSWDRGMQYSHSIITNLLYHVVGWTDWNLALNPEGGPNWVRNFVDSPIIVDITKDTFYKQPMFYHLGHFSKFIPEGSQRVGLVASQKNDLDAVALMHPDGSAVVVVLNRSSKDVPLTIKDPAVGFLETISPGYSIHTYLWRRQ

[16] = biological target: Acyl-homoserine lactone acylase PvdQ (Pseudomonas aeruginosa (strain LESB58), UniProt Q9I194); assay: PvdQ acylase enzyme activity blockers – biochemical, fluorescence, plate reader and imaging, cherry-picks, dose response (AID 493231)
Chain of Acyl-homoserine lactone acylase PvdQ (Q9I194 24-193 limits assumed): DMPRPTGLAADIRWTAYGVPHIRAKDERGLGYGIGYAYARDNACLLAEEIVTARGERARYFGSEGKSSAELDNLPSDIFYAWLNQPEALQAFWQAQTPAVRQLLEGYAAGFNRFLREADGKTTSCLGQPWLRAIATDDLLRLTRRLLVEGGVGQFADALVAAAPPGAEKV
Chain of Acyl-homoserine lactone acylase PvdQ (Q9I194 217-762 limits assumed): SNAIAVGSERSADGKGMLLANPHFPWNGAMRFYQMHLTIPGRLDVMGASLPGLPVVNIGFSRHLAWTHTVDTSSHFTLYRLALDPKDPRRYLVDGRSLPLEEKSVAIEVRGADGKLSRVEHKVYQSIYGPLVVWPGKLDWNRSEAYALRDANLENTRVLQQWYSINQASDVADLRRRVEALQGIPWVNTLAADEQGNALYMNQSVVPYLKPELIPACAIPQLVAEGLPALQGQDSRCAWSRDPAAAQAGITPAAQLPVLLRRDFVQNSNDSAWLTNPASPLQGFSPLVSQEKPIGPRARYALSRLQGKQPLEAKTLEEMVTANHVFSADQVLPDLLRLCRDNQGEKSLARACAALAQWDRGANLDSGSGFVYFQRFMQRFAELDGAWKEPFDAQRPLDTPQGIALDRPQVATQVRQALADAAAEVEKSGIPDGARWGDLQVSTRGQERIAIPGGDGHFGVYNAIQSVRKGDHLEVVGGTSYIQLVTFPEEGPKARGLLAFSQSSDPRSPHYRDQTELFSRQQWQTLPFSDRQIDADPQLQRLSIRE

[17] = test system: Vero; assay: cells; format: functional; details: Chlorocebus sabaeus
[18] = biological target: Luciferin 4-monooxygenase (Photinus pyralis, UniProt P08659); assay: In vitro luciferase assay using purified luciferase. [Related pubchem assays: 1299, 1270, 1295, 1375, 1287, 1281, 1293, 1291, 1289, 1280, 465, 1364, 1282, 1372, 1365, 1370, 1367, 1366, 1266, 1373, 1292, 1290, 1302, 1371, 1283, 1271, 1294, 1374, 1368, 1369 ]
Chain of Luciferin 4-monooxygenase (P08659 whole entry): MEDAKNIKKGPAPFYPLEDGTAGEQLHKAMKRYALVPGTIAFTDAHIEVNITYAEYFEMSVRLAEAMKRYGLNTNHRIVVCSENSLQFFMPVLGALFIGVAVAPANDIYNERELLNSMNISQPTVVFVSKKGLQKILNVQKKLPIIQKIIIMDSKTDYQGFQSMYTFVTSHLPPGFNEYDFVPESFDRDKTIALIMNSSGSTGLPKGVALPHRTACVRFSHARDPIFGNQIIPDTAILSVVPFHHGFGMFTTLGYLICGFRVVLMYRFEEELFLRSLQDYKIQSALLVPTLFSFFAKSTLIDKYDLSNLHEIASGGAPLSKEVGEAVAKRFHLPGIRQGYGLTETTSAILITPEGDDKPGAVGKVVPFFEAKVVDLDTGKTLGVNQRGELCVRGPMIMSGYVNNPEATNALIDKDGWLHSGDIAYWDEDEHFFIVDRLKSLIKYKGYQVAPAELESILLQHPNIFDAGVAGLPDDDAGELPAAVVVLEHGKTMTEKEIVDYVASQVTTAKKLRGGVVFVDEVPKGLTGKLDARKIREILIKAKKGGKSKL

[19] = test system: HEK293; assay: PMA/Ionomycin-induced IL-8 production in HEK293- NF-kB-Luc stable cells. [Related pubchem assays: 1299, 1295, 1375, 1287, 1281, 1293, 1291, 1289, 1280, 465, 1364, 1282, 1372, 1365, 1367, 1366, 1266, 1269, 1373, 1292, 1290, 1302, 1371, 1283, 1271, 1294, 1374, 1368, 1369 ]; format: functional, cell-based; details: Homo sapiens
[20] = test system: HEK293; assay: TNF Induced NF-kB Luciferase in 293-NF-kB-Luc Stable Cells. [Related pubchem assays: 1266, 1299, 1269, 1373, 1292, 1290, 1302, 1371, 1283, 1270, 1295, 1271, 1375, 1294, 1374, 1281, 1293, 1291, 1289, 1280, 465, 1368, 1364, 1282, 1372, 1365, 1369, 1370, 1367, 1366 ]; format: functional, cell-based; details: Homo sapiens
[21] = cells
[22] = viability of uninfected HEp-2 cells – cell-based, HTS, cytotoxicity control for RSV inhibitor project, dose response (AID 2410); format: functional; details: human respiratory syncytial virus
[23] = test system: Vero; assay: cells; format: functional, cell-based; details: Chlorocebus sabaeus
[24] = test system: HEK293; assay: PMA/Ionomycin induced NF-kB luciferase assay in 293- NF-kB-Luc stable cells. [Related pubchem assays: 1299, 1270, 1295, 1375, 1287, 1281, 1293, 1291, 1289, 1280, 465, 1364, 1282, 1372, 1365, 1370, 1367, 1366, 1269, 1373, 1292, 1290, 1302, 1371, 1283, 1271, 1294, 1374, 1368, 1369 ]; format: functional, cell-based; details: Homo sapiens
[25] = test system: HEK293; assay: Cytotoxicity assay in HEK293 cells. [Related pubchem assays (depositor defined):AID1266, AID1269, AID1270, AID1271, AID1280, AID1281, AID1282, AID1283, AID1287, AID1289, AID1290, AID1291, AID1292, AID1293, AID1294, AID1295, AID1299, AID1302, AID1364, AID1365, AID1366, AID1367, AID1369, AID1370, AID1371, AID1372, AID1373, AID1374, AID1375, AID1384 …; format: functional, cell-based; details: Homo sapiens

Chain of Aspartyl aminopeptidase (Q8I2J3 whole entry): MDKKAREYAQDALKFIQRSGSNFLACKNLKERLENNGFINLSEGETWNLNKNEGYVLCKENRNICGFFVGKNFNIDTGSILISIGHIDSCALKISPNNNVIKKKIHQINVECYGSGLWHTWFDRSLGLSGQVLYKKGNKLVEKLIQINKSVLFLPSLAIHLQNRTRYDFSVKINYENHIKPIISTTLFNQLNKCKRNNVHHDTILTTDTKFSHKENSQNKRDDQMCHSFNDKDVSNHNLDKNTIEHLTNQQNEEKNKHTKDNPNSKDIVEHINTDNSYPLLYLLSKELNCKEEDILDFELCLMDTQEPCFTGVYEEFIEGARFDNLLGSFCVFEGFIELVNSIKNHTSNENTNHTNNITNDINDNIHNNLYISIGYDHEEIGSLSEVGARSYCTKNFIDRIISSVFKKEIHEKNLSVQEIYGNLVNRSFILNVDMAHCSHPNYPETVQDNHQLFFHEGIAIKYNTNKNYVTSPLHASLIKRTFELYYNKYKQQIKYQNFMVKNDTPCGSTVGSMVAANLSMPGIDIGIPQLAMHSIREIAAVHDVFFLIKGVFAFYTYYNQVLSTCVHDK
Chain of Procathepsin L (P07711 whole entry): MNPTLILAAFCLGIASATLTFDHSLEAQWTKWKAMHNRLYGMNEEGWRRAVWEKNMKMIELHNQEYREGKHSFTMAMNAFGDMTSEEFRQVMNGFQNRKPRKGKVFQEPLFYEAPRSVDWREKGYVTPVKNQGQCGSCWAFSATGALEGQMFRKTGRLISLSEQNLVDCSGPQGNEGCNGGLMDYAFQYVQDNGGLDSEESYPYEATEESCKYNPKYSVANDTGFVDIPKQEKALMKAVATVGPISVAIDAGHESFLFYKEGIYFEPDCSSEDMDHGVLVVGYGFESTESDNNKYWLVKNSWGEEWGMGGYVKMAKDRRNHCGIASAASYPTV

O=C(O)c1c[nH]nc1-n1cnnn1
IC50 [1]: 1.27 µM (active)
IC50 [2]: > 59.6 µM (not active)

COc1ccc(CCNC(C)CCc2ccc(OC)cc2)cc1 (stereo not given)
IC50 [3]: > 79.4 µM (not active)

N#C/C(=C\c1ccc(N2CCOCC2)o1)C(=O)NCC1CCCO1 (stereo not given)
EC50 [4]: > 67.5 µM (inactive)
IC50 [5]: > 55.7 µM (not active)
IC50 [6]: 25.3 µM (not active)
IC50 [7]: > 67.5 µM (inactive)
EC50 [8]: > 100 µM (active)

Oc1ccccc1Cn1c(-c2ccccc2O)nc2ccccc21
EC50 [9]: 24.7 µM (not active)
EC50 [10]: 15.6 µM (not active)
IC50 [11]: 14.3 µM (not active)

CC1CN2C(CCC(C)C2c2ccc(Br)cc2)C(=O)O1 (stereo not given)
AC50 [12]: 3.98 µM (inconclusive)
AC50 [13]: 5.01 µM (inconclusive)

Cc1ccc(C(=O)NN=C(S)Nc2cccc3ccccc23)s1
EC50 [14]: 62.6 µM (not active)

O=C(OCCN1CCCCC1)c1cc2ccccc2o1
EC50 [15]: > 10 µM (not active)

O=C1C=C(c2ccccc2C(F)(F)F)C[C@@H](c2ccc3c(c2)OCO3)C1
AC50 [16]: > 100 µM (inactive)

Cc1oc(-c2ccccc2Cl)nc1CSCC(=O)N1CCCC1
CC50 [17]: > 25 µM (active)
EC50 [18]: > 8 µM (not active)
EC50 [19]: 11.1 µM (not active)
EC50 [20]: > 8 µM (not active)
IC50 [21]: 11 µM (active)
CC50 [22]: 16 µM (active)
IC50 [23]: 2.28 µM (active)
EC50 [24]: < 4 µM (active)
EC50 [25]: > 8 µM (inactive)
